# Experimental data taken from US10058419B2, “Oxidation resistant bioprosthetic tissues and preparation thereof” (The Children's Hospital of Philadelphia, priority 2011, dated 2018).
# Tested on: ROS activity
# Experiment: Dihydrorhodamine-123 (DHR123) fluorescence measure of oxidation due to ROS, with H2O2 as oxidant
# Conditions: DBP titrated in solution against H2O2 in the presence of DHR123 (FIG. 5)
# From the text: The ability of DBP to inhibit ROS activity was verified both in solution and when bound to glut-pretreated pericardium, as described above, by monitoring the fluorescence of dihydrorhodamine-123 (DHR123; Molecular Probes Inc., Eugene Oreg.), which is a commonly used measure of oxidation due to ROS. Briefly, the capacity of DBP to reduce ROS activity was proven in this system by titrating DBP in solution against the oxidant hydrogen peroxide (H2O2) in the presence of DHR123.
smiles,measurement,value
"CC(C)(C)c1cc(CCCN)cc(C(C)(C)C)c1O.Cl [DBP, 4-hydroxy-3,5-di-tert-butylphenylpropylamine hydrochloride]",oxidation signal (DHR123 fluorescence),dose-dependent inhibition of oxidation signal
